Data set [1] can be described thus: Plasma-protein binding by RED, range over three species. The note with it: pH 7.2, range over human, mouse, and rat, read-out: free fraction (plasma protein binding by RED). Format: in vitro ADME. The source says:
Next, we investigated the physiochemical and absorption, distribution, metabolism, and excretion (ADME) properties of compounds 3a, 3e, and 3f (Tables S5 and S6). […] The logD at pH 7.4 was below 0 for all three compounds (<−0.5 for compounds 3a and 3e). […] Overall, these features represent promising starting points for further development of this class of molecules.
(§1) The assay was run in a deep well plate containing RED inserts with semipermeable dialysis membranes. The reaction was started by adding the compounds to a blank plasma in a 5 μM concentration. Opposite to the blank plasma was a compartment containing isotonic sodium–phosphate buffer (pH 7.2) separated from the plasma by the membrane. The plate was equilibrated in a water bath at 37 °C for 4 h. Samples from both the plasma and the buffer side were matrix compensated before protein precipitation. The samples were centrifuged, and the supernatants were diluted and analyzed by LC–MS/MS to determine the % unbound compound. Two incubations per compound per species.

Data set [2] can be described thus: Plasma-protein binding by RED, mouse. Format: in vitro ADME. The settings on record: pH 7.2, read-out: Plasma-protein binding by RED (% unbound compound, average n=2). As to the method:
as §1

Data set [3] can be described thus: Metabolic stability in human liver microsomes. Format: in vitro ADME. The note with it: for microsomal CLint at 1 µM: human liver microsomes, read-out: intrinsic clearance Clint; for Metabolic stability in human microsomes, Exp. 1 / Metabolic stability in human microsomes, Exp. 2: intrinsic clearance, 1 µM compound. As to the method:
The assay was run in a 96-deep well format and solutions were prepared containing microsomes in phosphate buffer. The microsomes employed were from humans, rats, and mice. The reaction was initiated by addition of NADPH after preincubation at 37 °C with test compounds. The reaction was stopped by the addition of acetonitrile (ACN) at six time points (0, 5, 10, 15, 25, and 45 min), the samples were centrifuged, and the supernatant was diluted to determine the loss of compound by LC–MS/MS. Two incubations per compound per species. For further details regarding working concentrations, volumes, and final concentrations at incubation, refer to the supplementary section (Table S6). […]
Metabolic Metabolic Metabolic stability in stability in stability in Plasma-protein human mouse rat In vitro plasma stability binding by RED
Assay/compo microsome microsome microsome (% compound remaining after (% unbound und s s s 23 h) compound, (µL/min/m (µL/min/m (µL/min/m average n=2) g protein) g protein) g protein)
Exp. Exp. Exp. Exp. Exp. Exp. Hum Mou Ra Do Mini Hum Mou Ra […]
Conc. of W orki ng Vol ume i n Fi nal conc. At sol uti on assay incubation
577 m g / m L520 µ L0. […]
Background: Liver microsomes are a subcellular fraction often used to study metabolism.

The next data set concerns the target T1, SiaT from P. mirabilis (Proteus mirabilis, UniProt B4EZY7).
T1 construct: made in house
The data set is described as follows: biochemical. Format: biochemical. The settings on record: for type of inhibition: PmSiaT, Lineweaver–Burk plot; for Ki: proteoliposome assay, Lineweaver–Burk, read-out: PmSiaT Ki. As to the method:
To gain further insights into the molecular mechanisms, we investigated the direct effects of compounds 3e and 3f on the transport activity in proteoliposomes reconstituted with PmSiaT and SaSiaT. A kinetic analysis was performed by measuring the concentration-dependent uptake of [^3H]Neu5Ac in the presence of two different concentrations of the inhibitors 3f (Figure 5a,c) or 3e (Figure 5b,d).
Figure 5 Kinetic analysis of the inhibition of recombinant SiaT from P. mirabilis (A,B) and S. aureus (C,D) reconstituted in proteoliposomes and [^3H]Neu5Ac efflux in proteoliposomes (E,F). (a–d) Data were plotted according to Lineweaver–Burk as a reciprocal transport rate vs reciprocal Neu5Ac concentration. The transport rate was measured, in 5 min, by adding [^3H] Neu5Ac at the indicated concentrations to proteoliposomes containing 20 mM K^+-gluconate in the presence of valinomycin as described in the Supporting Information. [(A,B) P. mirabilis SiaT]; (A) compound 3f 0.25 μM (●) or 0.75 μM (□) was added in comparison to samples without inhibitor (○). (B) Compound 3e 12 μM (●) or 40 μM (□) was added in comparison to samples without an inhibitor (○). [(C,D) S. aureus SiaT]. (C) Compound 3f 80 μM (●) or 200 μM (□) was added in comparison to samples without an inhibitor (○). (D) Compound 3e 5 μM (●) or 12 μM (□) was added in comparison to samples without an inhibitor (○). Results are mean ± s.d. from four independent experiments (n = 4). […] Data are calculated as the percent of residual activity with respect to the control sample (efflux time zero). The results are the means ± s.d. of three independent experiments.
The purified SiaT from P. mirabilis and S. aureus was reconstituted by using the detergent removal procedure with the batchwise method previously pointed out.[16],[21] In brief, 2.5 μg or 5 μg of P. mirabilis and S. aureus SiaT, respectively, were mixed with 120 μL 10% C12E8, 100 μL of 10% egg yolk phospholipids (w/v, in the form of sonicated liposomes as previously described),[43] 20 mM of K^+-gluconate, and 20 mM Hepes Tris pH 7.0 in a final volume of 700 μL. The reconstitution mixture was incubated with 0.5 g Amberlite XAD-4 resin under rotatory stirring (1200 rpm) at 25 °C for 40 min.[44] The amount of reconstituted protein was estimated as previously described.[16]
For uptake experiments, 600 μL of proteoliposomes were loaded onto a Sephadex G-75 column (0.7 cm diameter × 15 cm height), pre-equilibrated with 20 mM Hepes Tris pH 7.0 with 40 mM sucrose to balance the internal osmolarity. Then, valinomycin (0.75 μg/mg phospholipid), prepared in ethanol, was added to the eluted proteoliposomes to generate a K^+ diffusion potential, as previously described. After 10 s of incubation with valinomycin, the transport was started by adding different concentrations of [^3H]-Neu5Ac (as indicated in the figures) to 100 μL proteoliposomes in the presence of 10 mM NaCl for P. mirabilis and 50 mM NaCl for S. aureus. For kinetic measurement, the initial transport rate was measured by stopping the reaction after 5 min, that is, within the initial linear range of [^3H]-Neu5Ac uptake into the proteoliposomes previously described. For efflux measurements, proteoliposomes were preloaded by incubation with [^3H]-Neu5Ac (as indicated in the figures) in the presence of 10 mM NaCl for P. mirabilis and 50 mM NaCl for S. aureus for 20 min. Efflux was started by adding 0.1 mM Neu5Ac or inhibitors to the preloaded proteoliposomes. In both uptake and efflux experiments, the transport assay was terminated by loading each proteoliposome sample (100 μL) on a Sephadex G-75 column (0.6 cm diameter × 8 cm height) to remove the external radioactivity. Proteoliposomes were eluted with 1 mL of 50 mM NaCl and collected in a 4 mL of scintillation mixture, vortexed and counted.

[4] abbreviates: Neu5Ac transport by PmSiaT in proteoliposomes.

The results in this text go back to article PMC9295122, “Sialic Acid Derivatives Inhibit SiaT Transporters and Delay Bacterial Growth” (ACS Chemical Biology, 2022).

One may read the Ki as the dissociation constant of the complex between target and ligand, obtained from inhibition or displacement. The term Km denotes the concentration of substrate that gives half-maximal velocity.

T1 sequence (B4EZY7 whole entry): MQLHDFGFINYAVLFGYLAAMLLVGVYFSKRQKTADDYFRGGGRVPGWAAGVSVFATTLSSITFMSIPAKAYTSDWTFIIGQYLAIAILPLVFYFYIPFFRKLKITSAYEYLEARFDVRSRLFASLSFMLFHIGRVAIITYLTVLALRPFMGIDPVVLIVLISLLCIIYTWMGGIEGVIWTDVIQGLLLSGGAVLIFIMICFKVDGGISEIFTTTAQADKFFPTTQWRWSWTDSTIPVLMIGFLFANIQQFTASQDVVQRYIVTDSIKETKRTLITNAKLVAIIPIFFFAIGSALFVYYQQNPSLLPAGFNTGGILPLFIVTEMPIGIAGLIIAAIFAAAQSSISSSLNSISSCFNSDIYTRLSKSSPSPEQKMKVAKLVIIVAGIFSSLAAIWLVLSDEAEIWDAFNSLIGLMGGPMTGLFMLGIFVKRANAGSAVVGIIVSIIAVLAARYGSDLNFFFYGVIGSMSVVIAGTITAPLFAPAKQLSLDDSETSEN

Consider `CC(=O)NC1C(OCc2ccccc2)CC(O)(C(=O)O)OC1C(O)C(O)CO` (stereo not drawn) [Compound 3a], for which the fraction unbound at 4 h, 5 μM in data set [1] lay in the range of 0.63 to 0.85. Besides, the fraction unbound at 4 h, 5 μM in data set [2] was found to be 0.63. In data set [3], the microsomal CLint at 1 µM is less than 10 µL/min/mg; the “Metabolic stability in human microsomes, Exp. 1” value (“Metabolic stability … Exp. 1” below) was less than 10 µL/min/mg protein; the “Metabolic stability in human microsomes, Exp. 2” value (from here on “Metabolic stability … Exp. 2”) is less than 10 µL/min/mg protein.

Take `CC(=O)NC1C(OCc2cc(F)cc(F)c2)CC(O)(C(=O)O)OC1C(O)C(O)CO` (stereo not drawn) [Compound 3e]: the fraction unbound at 4 h, 5 μM in data set [1] was 0.63 to 0.85. Besides, the fraction unbound at 4 h, 5 μM in data set [2] came out at 0.63. In addition, on SiaT from P. mirabilis, the type of inhibition result was “competitive inhibitors” and the Ki was determined as 9.9 ± 2.6 µM. Also, in data set [3], the microsomal CLint at 1 µM was less than 10 µL/min/mg; the “Metabolic stability … Exp. 1” value is listed as less than 10 µL/min/mg protein; the “Metabolic stability … Exp. 2” value is on record as less than 10 µL/min/mg protein.

Consider `CC(=O)NC1C(OCc2cc(Br)cc(Br)c2)CC(O)(C(=O)O)OC1C(O)C(O)CO` (stereo not drawn) [Compound 3f], for which the fraction unbound at 4 h, 5 μM in data set [1] lay in the range of 0.21 to 0.27. Moreover, in data set [2], the fraction unbound at 4 h, 5 μM is 0.23. Further, at SiaT from P. mirabilis, the type of inhibition result is “competitive inhibitors” and the inhibitory constant (Ki) is 0.13 ± 0.04 µM. Moreover, in data set [3], the microsomal CLint at 1 µM was less than 10 µL/min/mg; the “Metabolic stability … Exp. 1” value is given as less than 10 µL/min/mg protein; the “Metabolic stability … Exp. 2” value is reported as less than 10 µL/min/mg protein.

Take `CC(=O)N[C@H]1[C@H]([C@H](O)[C@H](O)CO)OC(O)(C(=O)O)C[C@@H]1O` (stereo partly drawn) [Neu5Ac, 5-N-acetyl neuraminic acid, reference compound]: on SiaT from P. mirabilis (setting [4]), the Michaelis constant (Km) is 7.5 ± 1.6 µM and the Vmax amounted to 180 ± 56 nmol/mg protein/min.
